Test system: hPSC21/MiaPaca2 co-culture
Experiment: Co-culture of RFP-labelled MiaPaca2 cancer cells and GFP-labelled hPSC21 stellate cells, kinetic fluorescence imaging
Type: cell-based, Human
From the text: Pancreatic ductal adenocarcinoma (PDAC) MiaPaca2 cancer cells were transduced with Nuclight Red lentiviral reagent to stably express RFP. Human pancreatic stellate cells 21 (hPSC21) were transduced with the Nuclight Green lentiviral reagent to stably express GFP. Both cell lines were cultures in a 2:1 hPSC21/MiaPaca2 ratio in a 384-well ultra-low attachment plate and treated with the Rho-kinase inhibitor Y-27632, an inducer of a cancer associated fibroblast (CAF) like phenotype of stellate cells (Li et al., Aging, 2020). The cells were incubated at 37° C./5CO2 in the Tecan Spark Cyto multimode plate reader with imaging capabilities and BF, red and green fluorescent images were taken every hour for 48 hours.

C[C@@H](N)[C@H]1CC[C@H](C(=O)Nc2ccncc2)CC1 [Y-27632]
morphology versus control sample (2:1 hPSC21/MiaPaca2, 384-well ultra-low attachment plate, imaged every hour for 48 hours (FIG. 7D)): activation and migration of hPSC21 towards the PDAC cancer cells
velocity of the objects inside the well (2:1 hPSC21/MiaPaca2 co-culture, imaged every hour for 48 hours (FIG. 7B)): increased
number of merges of the objects inside the well (2:1 hPSC21/MiaPaca2 co-culture, imaged every hour for 48 hours (FIG. 7C)): increased

— patent US20240230626A9, “METHOD FOR SCREENING POTENTIAL THERAPEUTIC AGENTS” (UNIVERSITEIT ANTWERPEN, priority 2021, published 2024)
